77 compounds from ChEMBL document CHEMBL1137703, “Predictive QSAR modeling of HIV reverse transcriptase inhibitor TIBO derivatives” (Eur J Med Chem, 2009) can be followed below.

The target in this assay is Human immunodeficiency virus type 1 reverse transcriptase (Human immunodeficiency virus 1, UniProt Q72547). The assay is described as follows: Inhibition of HIV1 reverse transcriptase. Conditions: for IC50: read-out: log(1/IC50) (converted).

Turning to `CC(C)=CN1CCn2c(=O)[nH]c3cccc(c32)C1C` (configuration not stated), the IC50 was 12000 nM.
On the same count and under the same terms, the result for `C[C@H]1Cn2c(=O)[nH]c3cc([N+](=O)[O-])cc(c32)CN1CC1CC1` reads 33400 nM.
The same measure, in the same setting: in the case of `CC(C)=CN1Cc2cc(Cl)cc3[nH]c(=O)n(c23)C[C@@H]1C` it was 182 nM; in that of `CC(C)=CN1CCn2c(=O)[nH]c3ccc(Cl)c(c32)C1C` (configuration not stated), 145 nM; in that of `C=C(C)N1Cc2cccc3[nH]c(=S)n(c23)C[C@@H]1C`, 26.3 nM.
The same measure, in the same setting: the result for `C=C(C)N1Cc2cccc3[nH]c(=O)n(c23)C(C)C1` (configuration not stated) reads 32400 nM.
In the case of `C[C@H]1Cn2c(=O)[nH]c3ccc(N(C)C)c(c32)CN1CC1CC1`, the IC50 is 6650 nM.
Same read-out and setting: the result for `CC(C)=CN1CCn2c(=S)[nH]c3cc(Cl)cc(c32)C1` reads 162 nM.
For `CC(C)=CN1Cc2cc(F)cc3[nH]c(=S)n(c23)C[C@@H]1C`, the IC50 was 25 nM.
In the case of `CC(C)=CN1CCn2c(=S)[nH]c3cc(Cl)cc(c32)C1C` (configuration not stated), the IC50 is 22.9 nM.
As for `CC(C)=CN1Cc2cccc3[nH]c(=S)n(c23)[C@@H](C)[C@H]1C` (relative stereo), the IC50 is 2240 nM.
Still for that read-out and setting: in the case of `C=C(C)N1Cc2cccc3[nH]c(=O)n(c23)CC1(C)C` it was 22900 nM.
The same measure, in the same setting: in the case of `C[C@H]1Cn2c(=O)[nH]c3cc(N(C)C)cc(c32)CN1CC1CC1` it was 6650 nM; in that of `CC(C)=CN1Cc2cccc3[nH]c(=O)n(c23)C[C@@H]1C`, 3310 nM.
`CCCN1Cc2cccc3[nH]c(=S)n(c23)CC1C` (configuration not stated): the “log(1/IC50)” value was 5.78.
Same read-out and setting: in the case of `CCCN1CCn2c(=S)[nH]c3cccc(c32)C1C` (configuration not stated) it was 5.61.
Consider `C[C@H]1Cn2c(=S)[nH]c3cccc(c32)CN1CC1CC1`, for which the IC50 was 60.3 nM.
In the case of `CC(C)=CN1Cc2cccc3[nH]c(=O)n(c23)CC1C(C)C` (configuration not stated), the IC50 was 10000 nM.
Turning to `CC(C)=CN1Cc2c(C=O)ccc3[nH]c(=S)n(c23)C[C@@H]1C`, the IC50 was 186 nM.
Still for that read-out and setting: the result for `C=C(C)N1CCn2c(=O)[nH]c3cccc(c32)C1` reads 46800 nM; that for `CCCN1Cc2cccc3[nH]c(=O)n(c23)C(C(C)C)C1` (configuration not stated), 74100 nM.
The same measure, in the same setting: the result for `C=C(C)N1Cc2cccc3[nH]c(=O)n(c23)CC1C(C)C` (configuration not stated) reads 10000 nM; that for `CC(C)=CN1Cc2c(I)ccc3[nH]c(=O)n(c23)C[C@@H]1C`, 87.1 nM.
The same measure, in the same setting: the result for `CC(C)=CN1Cc2c(C#N)ccc3[nH]c(=O)n(c23)C[C@@H]1C` reads 1150 nM; that for `S=c1[nH]c2cc(Cl)cc3c2n1CCN1CCCCC31` (configuration not stated), 2000 nM.
Turning to `COc1ccc2[nH]c(=S)n3c2c1CN(C=C(C)C)[C@@H](C)C3`, the IC50 is 34 nM.
Consider `CC(C)=CN1Cc2cccc3[nH]c(=S)n(c23)CC1C` (configuration not stated), for which the IC50 is 97.7 nM.
On the same count and under the same terms, in the case of `CC(C)=CN1Cc2cc(Cl)c(Cl)c3[nH]c(=S)n(c23)C[C@@H]1C` it was 25.6 nM; in that of `CC(C)=CN1[C@H](C)c2cccc3[nH]c(=S)n(c23)C[C@@H]1C` (relative stereo), 1150 nM; in that of `CSc1ccc2[nH]c(=S)n3c2c1CN(C=C(C)C)[C@@H](C)C3`, 5 nM.
For the compound `C[C@H]1Cn2c(=S)[nH]c3cc(Cl)cc(c32)CN1CC1CC1`, the IC50 was 33.9 nM.
For `CC(C)=CN1Cc2ccc(Br)c3[nH]c(=S)n(c23)C[C@@H]1C`, the IC50 is 1070 nM.
As to `CC(C)=CN1[C@H](C)Cn2c(=S)[nH]c3cc(Cl)cc(c32)[C@H]1C`, the IC50 was 479 nM.
As for `CC(C)=CN1Cc2c(Br)ccc3[nH]c(=O)n(c23)C[C@@H]1C`, the IC50 is 47.4 nM.
Turning to `CC(C)=CN1Cc2c(C#N)ccc3[nH]c(=S)n(c23)C[C@@H]1C`, the IC50 was 56.2 nM.
Still for that read-out and setting: the result for `S=c1[nH]c2cccc3c2n1C(Cc1ccccc1)C(Cc1ccccc1)N(CC1CC1)C3` (configuration not stated) reads 10000 nM; that for `COc1ccc2c3c1[nH]c(=S)n3C[C@H](C)N(C=C(C)C)C2`, 4680 nM; that for `CC(C)=CN1Cc2cccc3[nH]c(=O)n(c23)[C@@H](C)[C@H]1C` (relative stereo), 56200 nM.
On the same count and under the same terms, the result for `C#Cc1ccc2[nH]c(=S)n3c2c1CN(C=C(C)C)[C@@H](C)C3` reads 29.5 nM.
With `CC(C)=CN1CCn2c(=O)[nH]c3cccc(c32)C1`, the IC50 was 12600 nM.
As to `C=C(C)N1Cc2cccc3[nH]c(=O)n(c23)C(CCC)C1` (configuration not stated), the IC50 was 47900 nM.
Take `COc1ccc2c3c1[nH]c(=O)n3C[C@H](C)N(C=C(C)C)C2`: the IC50 was 6610 nM.
The same measure, in the same setting: in the case of `CC(C)=CN1[C@@H](C)Cn2c(=O)[nH]c3cc(Cl)cc(c32)[C@@H]1C` it was 5010 nM.
Still for that read-out and setting: the result for `CCCN1CCn2c(=O)[nH]c3cccc(c32)C1C` (configuration not stated) reads 83200 nM.
With `CCCN1Cc2cccc3[nH]c(=O)n(c23)CC1C` (configuration not stated), the “log(1/IC50)” value turned out to be 4.22.
On to `C#Cc1ccc2[nH]c(=O)n3c2c1CN(C=C(C)C)[C@@H](C)C3`, for which the IC50 is 437 nM.
On the same count and under the same terms, the result for `CC(C)=CN1Cc2c(Br)ccc3[nH]c(=S)n(c23)C[C@@H]1C` reads 3.01 nM; that for `CC(C)=CN1Cc2cccc3[nH]c(=S)n(c23)C[C@@H]1C`, 44.2 nM.
In the case of `CCOc1ccc2[nH]c(=S)n3c2c1CN(C=C(C)C)[C@@H](C)C3`, the IC50 was 95.9 nM.
Regarding `CC(C)=CN1CCn2c(=O)[nH]c3cc(Cl)cc(c32)C1C` (configuration not stated), the IC50 was 162 nM.
For `CC1CN(CC2CC2)Cc2cc(Cl)cc3[nH]c(=S)n1c23` (configuration not stated), the “log(1/IC50)” value is listed as 5.66.
In the case of `C=CCN1Cc2cccc3[nH]c(=O)n(c23)C[C@@H]1C`, the IC50 was 70100 nM.
`C=C(C)N1Cc2cc(Cl)cc3[nH]c(=S)n(c23)C(C)C1` (configuration not stated): the IC50 was 676 nM.
Regarding `CC(C)=CN1Cc2cccc3[nH]c(=S)n(c23)[C@@H](C)[C@@H]1C` (relative stereo), the IC50 is 14500 nM.
The same measure, in the same setting: in the case of `CC(C)=CN1Cc2c(C)ccc3[nH]c(=S)n(c23)C[C@@H]1C` it was 13.6 nM; in that of `CC(C)=CN1Cc2c(C)ccc3[nH]c(=O)n(c23)C[C@@H]1C`, 1000 nM; in that of `CC(C)=CN1CCn2c(=S)[nH]c3cccc(c32)C1C` (configuration not stated), 77.6 nM.
On the same count and under the same terms, the result for `CC(C)=CN1[C@@H](C)Cn2c(=S)[nH]c3cccc(c32)[C@@H]1C` (relative stereo) reads 41.7 nM; that for `C/C=C1/C[C@H]2Cn3c(=S)[nH]c4cc(Cl)cc(c43)CN2C1`, 3800 nM; that for `C=C(CC)N1CCn2c(=O)[nH]c3cccc(c32)C1`, 37200 nM.
On the same count and under the same terms, the result for `CC(C)=CN1Cc2c(F)ccc3[nH]c(=S)n(c23)C[C@@H]1C` reads 5.82 nM.
Consider `C=C(C)N1Cc2cccc3[nH]c(=O)n(c23)CC1CC` (configuration not stated), for which the IC50 is 50100 nM.
`CC(C)=CN1Cc2c(I)ccc3[nH]c(=S)n(c23)C[C@@H]1C`: the IC50 is 47.9 nM.
On the same count and under the same terms, the result for `CC(C)=CN1Cc2c(Cl)ccc3[nH]c(=S)n(c23)C[C@@H]1C` reads 5.01 nM.
Still for that read-out and setting: in the case of `C[C@H]1Cn2c(=S)[nH]c3cc([N+](=O)[O-])cc(c32)CN1CC1CC1` it was 2450 nM; in that of `C[C@H]1[C@H](C)n2c(=S)[nH]c3cccc(c32)CN1CC1CC1` (relative stereo), 13500 nM; in that of `CCCN1CCn2c(=O)[nH]c3cccc(c32)C1`, 89100 nM.
Take `CC(C)=CN1CCn2c(=S)[nH]c3ccc(Cl)c(c32)C1C` (configuration not stated): the IC50 was 12 nM.
As to `CC(C)=CN1[C@H](C)Cn2c(=O)[nH]c3cc(Cl)cc(c32)[C@H]1C`, the IC50 was 229 nM.
The same measure, in the same setting: in the case of `C=C(C)N1Cc2cccc3[nH]c(=O)n(c23)CC1C` (configuration not stated) it was 34700 nM; in that of `CC(C)=CN1CCn2c(=S)[nH]c3ccc(Cl)c(c32)C1`, 45.7 nM.
On to `CC(C)=CN1C[C@H](C)n2c(=S)[nH]c3cccc(c32)[C@H]1C` (relative stereo), for which the IC50 was 25700 nM.
For `CC(C)=CN1Cc2c(C(N)=O)ccc3[nH]c(=O)n(c23)C[C@@H]1C`, the IC50 is 6350 nM.
Same read-out and setting: the result for `C=C(C)N1Cc2cccc3[nH]c(=O)n(c23)C(C(C)C)C1` (configuration not stated) reads 12600 nM; that for `CC(C)=CN1Cc2cc(Cl)cc3[nH]c(=S)n(c23)C[C@@H]1C`, 42.7 nM; that for `CCCN1Cc2cc(Cl)cc3[nH]c(=S)n(c23)C(=O)C1C` (configuration not stated), 50100 nM.
On the same count and under the same terms, in the case of `C[C@H]1Cn2c(=O)[nH]c3cc(N)cc(c32)CN1CC1CC1` it was 60500 nM.
